From ChEMBL document CHEMBL4196052, “Rational modifications on a benzylidene-acrylohydrazide antiviral scaffold, synthesis and evaluation of bioactivity against Chikungunya virus” (Eur J Med Chem, 2018)
pEC50: −log10 of the molar value.

Tests used:
Chikungunya virus [1] = assay: Antiviral activity against Chikungunya virus Indian Ocean strain 899 infected in African green monkey Vero cells assessed as inhibition of viral-induced cytopathic effect measured on day 5 post infection by MTS/PMS assay; assay type: functional, organism-based, Indian Ocean 899; conditions: for pEC50 / EC90: Chikungunya virus, Indian Ocean 899, Vero, 120 h
Chikungunya virus [2] = assay: Antiviral activity against Chikungunya virus Indian Ocean strain 899 infected in African green monkey Vero cells assessed as inhibition of viral-induced cytopathic effect by measuring concentration required for maximum activity measured on day 5 post infection by MTS/PMS assay; assay type: functional, Indian Ocean 899
[3] = Cytotoxicity against African green monkey Vero cells by MTS/PMS assay; assay type: cell-based; conditions: chlorocebus sabaeus
[4] = Selectivity index, ratio of CC50 for African green monkey Vero cells to EC50 for Chikungunya virus Indian Ocean strain 899 infected in African green monkey Vero cells; assay type: toxicity; conditions: read-out: Ratio CC50/EC50

Structure (SMILES) | Imax (Chikungunya virus [1]) | pEC50 (Chikungunya virus [1]) | EC90 (Chikungunya virus [1]) | Activity (Chikungunya virus [2]) | CC50 [3] | selectivity ratio [4]
C/C(=N\NC(=O)/C=C/c1ccc(-c2ccccc2)cc1)c1ccc(C2CCCCC2)cc1 | 15% | < 4.53 | > 29.6 µM | 30 µM |  | 
O=C(N/N=C/c1ccc(O)cc1)c1ccc2ccccc2c1 | 2% | < 3.46 | > 344 µM | 344 µM |  | 
CC(C)(C)c1ccc(/C=C/C(=O)Nc2nc3ccccc3[nH]2)cc1 | 38% | < 3.80 | > 157 µM | 157 µM |  | 
C/C(=N\NC(=O)/C=C/c1ccc(C(C)C)cc1)c1ccc(C2CCCCC2)cc1 | 13% | < 3.71 | > 193 µM | 193 µM |  | 
Cc1ccc(-c2nnc(Cc3ccc(C(C)(C)C)cc3)o2)cc1 | 100% | 4.75 | 22.7 µM | 27.2 µM |  | 
Cc1ccc(-c2nnc(CCc3ccccc3)o2)cc1 | 2% | < 3.42 | > 378 µM | 1 µM |  | 
CCOc1ccc(/C=N/NC(=O)/C=C/c2ccc(OC)cc2)cc1OCC | 8% | < 3.57 | > 271 µM | 45 µM |  | 
Cc1ccc(C(=O)NNC(=O)/C=C/c2ccc(C(C)(C)C)cc2)cc1 | 9% | < 4.00 | > 99.1 µM | 99.1 µM |  | 
CCOc1ccc(/C=N/NC(=O)/C=C/c2ccc(C(F)(F)F)cc2)cc1OCC | 75% | 4.31 |  | 69 µM | 84.1 µM | 1.7
C/C(=N\NC(=O)c1cc2ccccc2[nH]1)c1ccc(C2CCCCC2)cc1 | 41% | < 3.68 | > 209 µM | 209 µM |  | 
CC(C)(C)c1ccc(/C=C/NC(=O)NCc2ccccc2)cc1 | 8% | < 3.97 | > 107 µM | 107 µM |  | 
Cc1ccc(NC(=O)N/C=C/c2ccc(C(C)(C)C)cc2)cc1 | 16% | < 4.21 | > 61 µM | 61 µM |  | 
Cc1ccc(/C=N/NC(=O)c2ccc3ccccc3c2)cc1 | 10% | < 3.46 | > 347 µM | 347 µM |  | 
Cc1ccc(CNC(=O)N/C=C/c2ccc(C(C)(C)C)cc2)cc1 | 10% | < 3.99 | > 103 µM | 103 µM |  | 
CCOc1ccc(/C=N/NC(=O)c2ccc3ccccc3c2)cc1OCC | 24% | < 3.56 | > 276 µM | 276 µM |  | 
Cc1ccc(/C=N/NC(=O)c2cc3ccccc3[nH]2)cc1 | 45% | < 3.44 | > 361 µM | 361 µM |  | 
COc1ccc(/C=C/C(=O)N/N=C(\C)c2ccc(C3CCCCC3)cc2)cc1 | 9% | < 4.06 | > 87.7 µM | 66 µM |  | 
Cc1ccc2[nH]c(NC(=O)/C=C/c3ccc(C(C)(C)C)cc3)nc2c1 | 47% | < 3.52 | > 300 µM | 300 µM |  | 
CC(C)(C)c1ccc(CCC(=O)Nc2nc3ccccc3[nH]2)cc1 | 41% | < 3.51 | > 311 µM | 311 µM |  | 
Cc1ccc2[nH]c(NC(=O)CCc3ccc(C(C)(C)C)cc3)nc2c1 | 8% | < 3.53 | > 298 µM | 1.6 µM |  | 
CCOc1ccc(-c2nnc(Cc3ccc(C(C)(C)C)cc3)o2)cc1OCC | 15% | 4.40 |  | 131.4 µM |  | 
O=C(N/N=C/c1ccc(O)cc1)c1cc2ccccc2[nH]1 | 51% | 3.46 | > 358 µM | 358 µM |  | 
O=C(N/C=C/c1ccccc1)Nc1ccc(O)cc1 | 2% | < 3.41 | > 393 µM | 197 µM |  | 
CCOc1ccc(/C=N/NC(=O)/C=C/c2ccc(-c3ccccc3)cc2)cc1OCC | 47% | < 4.10 | > 80.2 µM | 120 µM |  | 
CCOc1ccc(/C=N/NC(=O)CC(=O)c2ccc(C(C)(C)C)cc2)cc1OCC | 4% | < 3.61 | > 244 µM | 244 µM | 81 µM | 
CCOc1ccc(-c2nnc(/C=C/c3ccc(C(C)(C)C)cc3)o2)cc1OCC | 100% | 4.54 | 88.2 µM | 127.4 µM |  | 
Cc1ccc(/C=N/NC(=O)CC(=O)c2ccc(C(C)(C)C)cc2)cc1 | 13% | < 4.13 | > 74 µM | 74 µM | 84 µM | 
CCOc1ccc(/C=N/NC(=O)N/C=C/c2ccc(C(C)(C)C)cc2)cc1OCC | 49% | < 4.00 | > 100 µM | 100 µM |  | 
CCN(CC)CCCC(C)Nc1ccnc2cc(Cl)ccc12 (stereo not given) [CHLOROQUINE] |  |  | 21 µM |  |  | 
